# Data from patent US4080471A, “Use of substituted isopropylaminopropanols for inducing inotropic effects of the human heart” (priority 1976, dated 1978).
# How the values were obtained:
# heart [1] = assay: Effect on heart chronotropy and inotropy of a conscious dog; settings: for Enddiastolic volume / Stroke volume / Mean arterial blood pressure / Peak aortic flow / Mean ejection rate / Max. dF/dt: change i.v. at heart frequency +10 beats/min, interpolated, paced; for Enddiastolic volume: calculated from left ventricle diameter; for Stroke volume: methyl scopolamine pretreated; for Mean ejection rate: stroke volume / ejection time; for side effects: I and II 10 and 20 μg/kg; for Max. dF/dt: maximum flow acceleration in aorta
# Excerpt: During anesthesia a catheter was introduced in the aorta, an electromagnetic flow probe was placed around the ascending aorta, and induction coils were placed diametrically on the inside of the left ventricle. The experiments were started about 2 weeks after the incision, when the dog had recovered completely.
# When the dog was resting, the arterial blood pressure, the flow in the aorta, the maximum flow acceleration in the aorta (maximum dF/dt), heart frequency, the diameter of the left ventricle, and ECG were registered. The effects of compounds I and II were registered at 10, 20, and 30 minutes after administration. […] The compounds were given intravenously in the following doses. […] In order to eliminate vagal influence on the heart the dog was pretreated with methyl scopolamine 0.012 mg/kg bodyweight intramuscularily 20 minutes before the administration of the compounds. From the data giving the diameter of the left ventricle, the end diastolic volume was calculated according to E. W. Hawthorne. Mean ejection rate (ml/sec.) was calculated by dividing the stroke volume with the ejection time. […] The values given are the percentage changes after administration when the heart frequency has increased 10 beats per minute, values interpolated. […] In order to compare the inotropic effects of ouabain with those of the other compounds, the heart was stimulated in these experiments by electric pacing to a frequency which was 10 beats/minute above that registered before administration.
# In order to investigate the absorption and duration of the effect, compounds I and II were given orally in an amount of 100 μg/kg bodyweight.
# [2] = biological target: T1, beta-receptors of the heart (Felis catus, UniProt Q9TST6); assay: Beta-adrenergic (chronotropic, heart frequency) effects on anesthetized cat pretreated with reserpine; format: in vivo; settings: for potency relative to isoprenaline, chronotropic effect: isoprenaline = 1, cat i.v.; for ED50: iv, reserpinized anesthetized cat, i.v., estimated dose giving 50% of maximal effect, read-out: ED50 Heart Frequency
# T1 construct: Heart frequency was registered with a cardiotachometer triggered by the ECG; from tissue; host or cells: heart of the anaesthetized cat in vivo (reserpine-pretreated, vagotomized)
# T1 sequence (Q9TST6 whole entry): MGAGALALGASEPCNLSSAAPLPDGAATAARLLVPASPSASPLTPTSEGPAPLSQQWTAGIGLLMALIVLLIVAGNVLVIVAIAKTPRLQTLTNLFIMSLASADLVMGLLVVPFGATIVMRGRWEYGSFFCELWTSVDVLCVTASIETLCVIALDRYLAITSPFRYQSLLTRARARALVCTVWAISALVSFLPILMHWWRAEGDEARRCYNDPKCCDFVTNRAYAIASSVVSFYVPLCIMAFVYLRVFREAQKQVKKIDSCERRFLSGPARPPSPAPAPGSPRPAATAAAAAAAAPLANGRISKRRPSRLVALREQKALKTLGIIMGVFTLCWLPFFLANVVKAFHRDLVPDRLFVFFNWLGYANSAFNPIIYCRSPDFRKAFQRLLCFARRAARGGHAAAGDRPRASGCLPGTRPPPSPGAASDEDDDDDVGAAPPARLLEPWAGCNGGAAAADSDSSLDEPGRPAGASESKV
# Procedure: (§1) Chronotropic (heart frequency) and vasodilatating effects:
# (§2) When the cats had been anaesthetized with Mebumal® 30 mg/kg bodyweight i.p., an artificial air respiration was started. The two vagus nerves were cut and the blood passing through a femoral artery was fed via a catheter and a pump back to the distal part of the vessel. Parallelly, a pressure transducer was connected by which the perfusion pressure was registered. At a perfusion with a constant flow, the perfusion pressure is directly proportional to the peripheral resistance of the vascular bed of the hind limb. Blood circulation in the foot was interrupted with a ligature. Heart frequency was registered with a cardiotachometer triggered by the ECG. The substances were administered intravenously in increasing doses and the dose-response curves of the heart frequency and the vasodilatation were constructed.
# (§3) Further, the dose ratios (ED50 for vasodilatation/ED50 for heart frequency) are calculated. A dose ratio >1 indicates a heart selective effect.
# [3] = test system: beta-receptors of the heart; assay: as above; format: in vivo
# Procedure: as §1, §2, §3
# [4] = biological target: T2, beta-receptors of the blood vessels (Felis catus, UniProt Q9TST5); assay: Vasodilatating effect (hind limb perfusion pressure) on anesthetized cat pretreated with reserpine; format: in vivo; settings: iv; reserpinized anesthetized cat, i.v.; estimated dose giving 50% of maximal effect; read-out: ED50 Vasodilation
# T2 construct: from tissue; host or cells: hind-limb vascular bed of the anaesthetized cat in vivo (constant-flow perfusion, reserpine-pretreated)
# T2 sequence (Q9TST5 whole entry, the tested form may be a part): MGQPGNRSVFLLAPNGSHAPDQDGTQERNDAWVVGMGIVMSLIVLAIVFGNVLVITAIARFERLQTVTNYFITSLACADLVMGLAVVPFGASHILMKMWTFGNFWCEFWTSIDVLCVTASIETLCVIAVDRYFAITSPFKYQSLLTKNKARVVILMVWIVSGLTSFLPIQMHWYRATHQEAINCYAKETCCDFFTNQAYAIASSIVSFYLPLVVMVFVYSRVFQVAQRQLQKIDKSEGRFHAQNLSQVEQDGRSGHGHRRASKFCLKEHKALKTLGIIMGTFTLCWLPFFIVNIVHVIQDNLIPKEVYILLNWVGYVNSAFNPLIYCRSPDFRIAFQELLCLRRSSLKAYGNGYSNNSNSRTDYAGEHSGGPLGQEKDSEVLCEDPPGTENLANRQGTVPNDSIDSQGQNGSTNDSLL
# Procedure: as §1, §2, §3
# heart [5] = assay: Effect on heart contractility (maximum dP/dt) of the anesthetized dog; format: in vivo
# Excerpt: (§4) Effects of Compound I and Ouabain On the Heart Contractility and Rhythmicity of the Anesthetized Dog
# (§5) The object of the test was to compare compound I and oubain administered alone and in combination with each other to study the inotropic effect (maximum dP/dt in the left ventricle) and a possibly arrhythmic effect. The latter included an investigation of the ability of the compounds to cause repetitive ventricular response (RVR) when the heart was electrically stimulated via an electrode on the ventricle at the electrically vulnerable phase at the end of the T-wave. Klein et al. (M. Klein, N. S. Nejad, B. Lown, F. Hagemeijer and I. Blair, Circulation Research, 29, 635 (1971)) have shown that digitalis caused RVR at a dose which was about 70% of the dose giving spontaneous ventricular arrhythmias.
# (§6) The dog was anesthetized with Mebumal® 30 mg/kg bodyweight i.v. Artificial respiration was applied. The sinus-node was electrocoagulated and the heart frequency was kept constant at 180 beats/minute in each test by electrical pacing of the auricle. Mean arterial blood pressure was registered from the carotis artery. ECG was registered during the test. Further, the pressure in the left ventricle was registered via a catheter inserted through the apex and connected to a pressure transducer. The intraventricular pressure curve was derivated to obtain maximum dP/dt which is a measure of the contractile force of the heart.
# (§7) The test was started with a series of control registrations, whereupon the compounds were administered 3 times by infusion during five minutes and with an interval of 50 minutes between each infusion.
# (§8) In the experiment with compound I only, the compound was administered in two doses of 10 μg/kg bodyweight and then one dose of 20 μg/kg bodyweight. Ouabain was given in 3 consecutive doses of 20 μg/kg bodyweight. In the combination test ouabain was first given in a dose of 20 μg/kg bodyweight followed by two doses of compound I of 10 and 20 μg/kg bodyweight, respectively.
# heart [6] = assay: Repetitive ventricular response (RVR) / spontaneous arrhythmia in the anesthetized dog; format: in vivo; settings: 40 μg/kg bodyweight
# Excerpt: as §4, §5, §6, §7, §8
# heart [7] = assay: Ventricular arrhythmia in dogs after two-stage ligation of the left anterior coronary artery (third day post infarction); format: in vivo, dog; settings: 1-norepinephrine 20 μg/kg/min infusion, 120 minutes
# Procedure: Harris, A. S. Delayed Development of Ventricular Ectopic Rhythms following Coronary Occlusion, Cir. l, p 1318, (1950) described a method of two-stage ligation of the left anterior coronary artery in the dog. This method produces a multifocal ventricular arrhythmia that generally remains persistent on the first post ligation day (day 1-24 hours post infarct). The arrhythmia slowly disappears, and by the third post-ligation day the animal has essentially a normal sinus rhythm.
# Maling, H. M. and Moran, N. C., Ventricular Arrhythmias Induced by Sympathominetic Amines in Unanesthetized Dogs Following Coronary Artery Occlussion, Cir.
# METHODS, MATERIALS AND EXPERIMENTAL DESIGN
# Seventeen adult female beagle dogs were used. Their ages ranged from one to three years. These animals were divided into two groups.
# The first group consisted of 12 dogs and served as a control group. All animals were subjected to a two-stage ligation of the left anterior coronary artery. On the first post operative day these twelve animals were given various experimental antiarrhythmic agents as part of a routine testing procedure. It should be noted that, due to the nature of these agents, there would be no test drug or only trace amounts of test drug in the blood on day 3, and these amounts would cause little or no change on the outcome of a third day test. It should also be noted that all twelve of these animals has at least 85% ventricular ectopic beats on the morning after surgery in order to be accepted for testing.
# On the third day post infarction the dogs were suspended in a standing position in a canvas sling. No anesthesia or sedation was used. ECGs were recorded as well as blood pressure. After a control period, an infusion of 20 μg/kg min. of 1-norepinephrine was begun using a Harvard infusion/withdrawal pump. This infusion lasted 120 minutes.
# These five animals were all subjected to a two stage ligation of the anterior descending coronary artery. On day 1 and day 2 each dog was suspended in a canvas sling in the standing position and ECG, blood pressure, and other physiologic measurements were taken. […]
# [8] = conscious dog, ouabain 30 μg/kg i.v.
# [9] = dose ratio >1 indicates a heart selective effect
# [10] = 20 minutes after administration, ouabain versus compound I
# [11] = anesthetized dog, i.v. infusion
Structure (SMILES),"potency relative to isoprenaline, chronotropic effect [2]",ED50 [2] [mg/kg],ED50 [4] [mg/kg],Enddiastolic volume (heart [1]; ouabain 30 μg/kg i.v.) [%],Stroke volume (heart [1]; ouabain 30 μg/kg i.v.) [%],Mean arterial blood pressure (heart [1]; ouabain 30 μg/kg i.v.) [mm Hg],Peak aortic flow (heart [1]; ouabain 30 μg/kg i.v.) [%],Mean ejection rate (heart [1]; ouabain 30 μg/kg i.v.) [%],side effects (heart [1]; [8]),Max. dF/dt (heart [1]; ouabain 30 μg/kg i.v.) [%],"Selectivity: ED50 Vasodilatation / ED50 Heart Frequency [3, 9]",other results
"CC(C)NCC(O)COc1ccc(OC(=O)C(C)C)cc1 (centres unmarked) [II, 1-isopropylamino-3-(p-isobutyryloxyphenoxy)-propanol-2]",about 1/100,0.006,> 1,-8,5,0,19,11,No side effect was observed,34,> 100,"time of maximum effect, oral (heart [1]; 100 μg/kg bodyweight orally): 30 min; oral effect (in words) (heart [1]; oral, 100 μg/kg bodyweight): comparable with those obtained after intravenous administration of 20 μg/kg bodyweight; positive inotropic effect compared with ouabain (in words) (heart [1]; versus relatively high dose of ouabain): comparable to the effect of the relatively high dose of ouabain"
"CC(C)NCC(O)c1ccc(O)c(O)c1 (centres unmarked) [Isoprenaline, reference compound]",–,–,–,-2,–,-10,19,–,–,–,–,"mean blood pressure (in words) (heart [1]; conscious dog, infusion): decreased the mean blood pressure; contractility / inotropic effect in conscious dog (in words) (heart [1]; i.v.): increased the contractility less than compounds I and II"
"C[C@@H]1O[C@@H](O[C@H]2C[C@@H](O)[C@]3(CO)[C@H]4[C@H](O)C[C@]5(C)[C@@H](C6=CC(=O)OC6)CC[C@]5(O)[C@@H]4CC[C@]3(O)C2)[C@H](O)[C@H](O)[C@H]1O [Ouabain, reference compound]",–,–,–,-2,5,10,12,10,vomiting,30,–,increase of aortic blood pressure (heart [5]; 20 minutes after administration): about 10 mm Hg; doses giving approximately the same level of maximum dP/dt (lower pair) (heart [5]; [10]): ~20 μg/kg bodyweight; doses giving corresponding effect on maximum dP/dt (higher pair) (heart [5]; [10]): 40 μg/kg bodyweight; effect on maximum dP/dt (in words) (heart [5]; [11]): increased maximum dP/dt; onset of effect on maximum dP/dt (heart [5]; [11]): within a minute; reduction of effect on maximum dP/dt after 50 minutes (heart [5]; [11]): only partly reduced after 50 minutes; time to maximal effect on maximum dP/dt (heart [5]; [11]): about 20 minutes; experiments with RVR (heart [6]): more than 50%; heart frequency (in words) (heart [1]; [8]): expected decrease of the heart frequency; time of maximum response after i.v. administration (heart [1]; ouabain 30 μg/kg i.v.): about 50 minutes
"NC[C@H](O)c1ccc(O)c(O)c1 [norepinephrine, reference compound]",–,–,–,–,–,–,–,–,–,–,–,duration of substantially high incidence of ectopic activity (heart [7]): at least 90 minutes

# Now from value to compound, other results behind:
"potency relative to isoprenaline, chronotropic effect [2]",ED50 [2] [mg/kg],ED50 [4] [mg/kg],Structure (SMILES),Enddiastolic volume (heart [1]; ouabain 30 μg/kg i.v.) [%],Stroke volume (heart [1]; ouabain 30 μg/kg i.v.) [%],Mean arterial blood pressure (heart [1]; ouabain 30 μg/kg i.v.) [mm Hg],Peak aortic flow (heart [1]; ouabain 30 μg/kg i.v.) [%],Mean ejection rate (heart [1]; ouabain 30 μg/kg i.v.) [%],side effects (heart [1]; [8]),Max. dF/dt (heart [1]; ouabain 30 μg/kg i.v.) [%],"Selectivity: ED50 Vasodilatation / ED50 Heart Frequency [3, 9]",other results
about 1/100,0.01,> 1,"CC(C)NCC(O)COc1ccc(OC(=O)c2ccccc2)cc1 (centres unmarked) [III, 1-isopropylamino-3-(p-benzoyloxyphenoxy)-propanol-2]",–,–,–,–,–,–,–,> 100,–
–,0.06,> 1,"CC(C)NCC(O)COc1ccc(OC(=O)C(C)(C)C)cc1 (centres unmarked) [IV, 1-isopropylamino-3-(p-pivaloyloxyphenoxy)-propanol-2]",–,–,–,–,–,–,–,–,Selectivity: ED50 Vasodilatation / ED50 Heart Frequency ([3]; in vivo): > 15
